SMILES strings stand for the structures.

The target of the assay is T1, recombinant guanylate cyclase reporter cell line (Rattus norvegicus, UniProt P19686+P20595).
T1 construct: expressed in transfected cells; host or cells: recombinant reporter cell line
T1 sequence (P19686 1-690): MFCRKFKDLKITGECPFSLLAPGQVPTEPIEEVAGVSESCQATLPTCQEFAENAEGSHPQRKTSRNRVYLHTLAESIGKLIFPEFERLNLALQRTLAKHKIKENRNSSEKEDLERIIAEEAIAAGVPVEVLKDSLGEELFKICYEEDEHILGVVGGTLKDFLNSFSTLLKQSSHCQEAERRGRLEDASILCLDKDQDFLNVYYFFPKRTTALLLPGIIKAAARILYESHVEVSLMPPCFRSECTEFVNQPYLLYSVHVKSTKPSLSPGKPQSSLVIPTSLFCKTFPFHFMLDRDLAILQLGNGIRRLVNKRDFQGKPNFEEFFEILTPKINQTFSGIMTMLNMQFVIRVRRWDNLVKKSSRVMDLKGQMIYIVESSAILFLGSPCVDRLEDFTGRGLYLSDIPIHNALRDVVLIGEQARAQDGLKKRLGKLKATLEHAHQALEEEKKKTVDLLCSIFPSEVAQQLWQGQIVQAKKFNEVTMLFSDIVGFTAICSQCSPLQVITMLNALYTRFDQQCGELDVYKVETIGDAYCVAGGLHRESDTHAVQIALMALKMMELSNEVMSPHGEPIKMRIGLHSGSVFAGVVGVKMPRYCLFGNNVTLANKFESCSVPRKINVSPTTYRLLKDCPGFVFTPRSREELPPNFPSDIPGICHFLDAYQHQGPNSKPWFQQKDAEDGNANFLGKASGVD
T1 sequence (P20595 1-619): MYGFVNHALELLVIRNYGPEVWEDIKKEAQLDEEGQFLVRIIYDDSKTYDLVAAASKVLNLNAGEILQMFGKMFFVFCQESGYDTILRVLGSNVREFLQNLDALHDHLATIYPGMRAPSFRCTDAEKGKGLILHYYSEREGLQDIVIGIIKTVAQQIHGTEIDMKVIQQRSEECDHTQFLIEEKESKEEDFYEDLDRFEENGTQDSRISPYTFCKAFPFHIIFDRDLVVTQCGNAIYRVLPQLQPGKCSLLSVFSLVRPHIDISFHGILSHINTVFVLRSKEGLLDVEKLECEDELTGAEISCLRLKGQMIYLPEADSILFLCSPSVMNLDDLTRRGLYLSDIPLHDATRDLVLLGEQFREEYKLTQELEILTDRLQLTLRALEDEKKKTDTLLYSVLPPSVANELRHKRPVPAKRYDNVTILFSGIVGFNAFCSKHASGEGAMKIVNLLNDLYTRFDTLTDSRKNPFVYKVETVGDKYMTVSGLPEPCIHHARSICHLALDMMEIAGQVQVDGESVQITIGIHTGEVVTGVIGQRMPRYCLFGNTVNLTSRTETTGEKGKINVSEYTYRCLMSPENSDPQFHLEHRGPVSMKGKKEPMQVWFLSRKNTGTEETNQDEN
In words: Effect on a recombinant guanylate cyclase reporter cell line. The assay is classed as cell-based. Particulars: MEC = minimum effective concentration; in some cases mean values for individual determinations. Here is the method: B-2. Effect on a Recombinant Guanylate Cyclase Reporter Cell Line
The cellular effect of the inventive compounds is determined using a recombinant guanylate cyclase reporter cell line, as described in F. Wunder et al., Anal. Biochem. 339, 104-112 (2005).
Representative MEC values (MEC=minimum effective concentration) for the inventive compounds are shown in the table below (in some cases as mean values for individual determinations): […]
As for `Cc1cc(OCc2c(F)cccc2F)c2nc(C)c(-c3cnn(CCC(=O)NC4CC4)c3)n2c1` [Example 114, N-Cyclopropyl-3-(4-{8-[(2,6-difluorobenzyl)oxy]-2,6-dimethylimidazo[1,2-a]pyridin-3-yl}-1H-pyrazol-1-yl)propanamide], the MEC was 0.3 µM.

In the case of `Cc1cc(OCc2c(F)cccc2F)c2nc(C)c(-c3cnn(CC(N)=O)c3)n2c1` [Example 115, 2-(4-{8-[(2,6-Difluorobenzyl)oxy]-2,6-dimethylimidazo[1,2-a]pyridin-3-yl}-1H-pyrazol-1-yl)acetamide], the MEC is 0.1 µM. The figure for `Cc1cc(OCc2c(F)cccc2F)c2nc(C)c(-c3cnn(CC(C)(C)O)c3)n2c1` [Example 116, 1-(4-{8-[(2,6-Difluorobenzyl)oxy]-2,6-dimethylimidazo[1,2-a]pyridin-3-yl}-1H-pyrazol-1-yl)-2-methylpropan-2-ol] is 0.01 µM; for `Cc1cc(OCc2c(F)cccc2F)c2nc(C)c(-c3cnn(CC(C)(C)N)c3)n2c1.Cl` [Example 117, 1-(4-{8-[(2,6-Difluorobenzyl)oxy]-2,6-dimethylimidazo[1,2-a]pyridin-3-yl}-1H-pyrazol-1-yl)-2-methylpropan-2-amine hydrochloride] it is 0.1 µM. The figure for `Cc1cc(OCc2c(F)cccc2F)c2nc(C)c(-c3cnn(CCN4CCOCC4)c3)n2c1` [Example 118, 8-[(2,6-Difluorobenzyl)oxy]-2,6-dimethyl-3-{1-[2-(morpholin-4-yl)ethyl]-1H-pyrazol-4-yl}imidazo[1,2-a]pyridine] is 0.03 µM.

As to `Cc1nc2c(OCc3c(F)cccc3F)cccn2c1-c1cnn(CCN2CCOCC2)c1` [Example 119], the MEC turned out to be 0.1 µM. The same measure for `Cc1cc(OCc2c(F)cccc2F)c2nc(C)c(-c3cccc(CN4CCN(C)CC4)c3)n2c1` [Example 120]: 0.3 µM; for `Cc1nc2c(OCc3c(F)cccc3F)cccn2c1-c1cnn(-c2cccnc2)c1` [Example 121]: 1.0 µM; for `Cc1nc2c(OCc3c(F)cccc3F)cccn2c1-c1cnn(-c2cncc(F)c2)c1` [Example 122]: 3.0 µM. The same measure for `Cc1nc2c(OCc3c(F)cccc3F)cccn2c1-c1cnn(-c2ccc(F)cc2)c1` [Example 123, 8-[(2,6-Difluorobenzyl)oxy]-3-[1-(4-fluorophenyl)-1H-pyrazol-4-yl]-2-methylimidazo[1,2-a]pyridine]: 0.3 µM.

Turning to `Cc1nc2c(OCc3c(F)cccc3F)cccn2c1-c1nc(N)n[nH]1` [Example 124, 5-{8-[(2,6-Difluorobenzyl)oxy]-2-methylimidazo[1,2-a]pyridin-3-yl}-1H-1,2,4-triazol-3-amine], the MEC is 3.0 µM. As to `Cc1nc2c(OCc3c(F)cccc3F)cccn2c1-c1nc(N)n(CC(F)(F)F)n1` [Example 125, 3-{8-[(2,6-Difluorobenzyl)oxy]-2-methylimidazo[1,2-a]pyridin-3-yl}-1-(2,2,2-trifluoroethyl)-1H-1,2,4-triazol-5-amine], the MEC worked out at 3.0 µM.

As to `Cc1cc(OCc2c(F)cccc2F)c2nc(C)c(-c3n[nH]c(C(F)(F)F)n3)n2c1` [Example 126, 8-[(2,6-Difluorobenzyl)oxy]-2,6-dimethyl-3-[5-(trifluoromethyl)-1H-1,2,4-triazol-3-yl]imidazo[1,2-a]pyridine], the MEC is 3.0 µM.

Regarding `Cc1cc(OCc2c(F)cccc2F)c2nc(C)c(-c3cn(CC(C)(C)N)nc3C)n2c1.O=CO` [Example 127, 1-(4-{8-[(2,6-Difluorobenzyl)oxy]-2,6-dimethylimidazo[1,2-a]pyridin-3-yl}-3-methyl-1H-pyrazol-1-yl)-2-methylpropan-2-amine formate], the MEC is 0.3 µM. The same measure for `Cc1cc(OCc2c(F)cccc2F)c2nc(C)c(-c3nc[nH]n3)n2c1` [Example 128, 8-[(2,6-Difluorobenzyl)oxy]-2,6-dimethyl-3-(1H-1,2,4-triazol-3-yl)imidazo[1,2-a]pyridine]: 1.0 µM; for `Cc1cc(OCc2c(F)cccc2F)c2nc(C)c(-c3ncn(CC(C)(C)N)n3)n2c1` [Example 129, 1-(3-{8-[(2,6-Difluorobenzyl)oxy]-2,6-dimethylimidazo[1,2-a]pyridin-3-yl}-1H-1,2,4-triazol-1-yl)-2-methylpropan-2-amine]: 1.0 µM; for `Cc1cc(OCc2c(F)cccc2F)c2nc(C)c(-c3nnc(CC(C)(C)N)o3)n2c1` [Example 130, 1-(5-{8-[(2,6-Difluorobenzyl)oxy]-2,6-dimethylimidazo[1,2-a]pyridin-3-yl}-1,3,4-oxadiazol-2-yl)-2-methylpropan-2-amine]: 3.0 µM.

As for `Cc1cc(OCc2c(F)cccc2F)c2nc(C)c(-c3noc(CC(C)(C)N)n3)n2c1` [Example 131, 1-(3-{8-[(2,6-Difluorobenzyl)oxy]-2,6-dimethylimidazo[1,2-a]pyridin-3-yl}-1,2,4-oxadiazol-5-yl)-2-methylpropan-2-amine], the MEC turned out to be 1.0 µM. The figure for `Cc1cc(OCc2c(F)cccc2F)c2nc(C)c(-c3nc(CC(C)(C)N)no3)n2c1.O=CO` [Example 132, 1-(5-{8-[(2,6-Difluorobenzyl)oxy]-2,6-dimethylimidazo[1,2-a]pyridin-3-yl}-1,2,4-oxadiazol-3-yl)-2-methylpropan-2-amine formate] is 0.3 µM.

For `Cc1cc(OCc2c(F)cccc2F)c2nc(C)c(-c3nnc(CC(C)(C)N)s3)n2c1.O=CO` [Example 133, 1-(5-{8-[(2,6-Difluorobenzyl)oxy]-2,6-dimethylimidazo[1,2-a]pyridin-3-yl}-1,3,4-thiadiazol-2-yl)-2-methylpropan-2-amine formate], the MEC was found to be 0.3 µM. Regarding `Cc1nc2c(OCc3c(F)cccc3F)cccn2c1-c1cn[nH]n1` [Example 134, 8-[(2,6-Difluorobenzyl)oxy]-2-methyl-3-(2H-1,2,3-triazol-4-yl)imidazo[1,2-a]pyridine], the MEC worked out at 1.0 µM. The same measure for `Cc1ccc(-c2c(C)nc3c(OCc4c(F)cccc4F)cc(C)cn23)cc1` [Example 135, 8-[(2,6-Difluorobenzyl)oxy]-2,6-dimethyl-3-(4-methylphenyl)imidazo[1,2-a]pyridine]: 3.0 µM; for `Cc1cc(OCc2c(F)cccc2F)c2nc(C)c(-c3ncc(C)o3)n2c1` [Example 137, 8-[(2,6-Difluorobenzyl)oxy]-2,6-dimethyl-3-(5-methyl-1,3-oxazol-2-yl)imidazo[1,2-a]pyridine]: 3.0 µM. The figure for `CCOC(=O)c1ncc(-c2c(C)nc3c(OCc4c(F)cccc4F)cc(C)cn23)s1` [Example 138, Ethyl 5-{8-[(2,6-difluorobenzyl)oxy]-2,6-dimethylimidazo[1,2-a]pyridin-3-yl}-1,3-thiazole-2-carboxylate] is 3.0 µM.

For `CCOc1cc(-c2c(C)nc3c(OCc4c(F)cccc4F)cc(C)cn23)sc1N` [Example 139, 5-{8-[(2,6-Difluorobenzyl)oxy]-2,6-dimethylimidazo[1,2-a]pyridin-3-yl}-3-ethoxythiophen-2-amine], the MEC was determined as 0.1 µM. The figure for `Cc1cc(OCc2c(F)cccc2F)c2nc(C)c(-c3cccnc3)n2c1` [Example 140, 8-[(2,6-Difluorobenzyl)oxy]-2,6-dimethyl-3-(pyridin-3-yl)imidazo[1,2-a]pyridine] is 0.1 µM.

The record behind these values is US9776997B2, “3-aryl-substituted imidazo[1,2-A]pyridines and their use” (Bayer Pharma Aktiengesellschaft, priority 2013, dated 2017).
